Experimental data reported in patent publication US6812229B1, “Carbamate derivative and agricultural/horticultural fungicide” (Kumiai Chemical Industry Co., Ltd., priority 1999, dated 2004).

Legend:
Erysiphe graminis = test: Test for preventive effect on wheat powdery mildew; assay type: in vivo; conditions: wheat seedlings (Norin-61-go), two-leaf stage, 500 ppm active ingredient, wettable powder, total diseased area of first leaves 10 days after inoculation
Protocol: 10 Wheat seeds (variety: Norin-61-go) were sown in each plastic pot having a diameter of 6 cm, and grown in a greenhouse. Wheat seedlings which reached a two-leaf stage were treated with 10 ml per pot of aqueous solutions of wettable powders prepared in accordance with Formulation Example 2, at a concentration of 500 ppm in terms of the active ingredients, and dried in the air. Then, the seedlings were inoculated with Erysiphe graminis spore and controlled in a greenhouse. 10 Days after the inoculation, the total diseased area of the first leaves in each pot was observed and evaluated on the basis of the standards shown in Table 21.

Septoria nodorum = test: Test for preventive effect on Septoria leaf blotch of wheat; assay type: in vivo; conditions: wheat seedlings (Norin-61-go), two-leaf stage, 50 ppm active ingredient, 10 ml per pot, evaluated 10 days after inoculation with Septoria nodorum
Text: [table] 10 Wheat seeds (variety: Norin-61-go) were sown in each plastic pot having a diameter of 6 cm, and grown in a greenhouse. […] Then, the seedlings were inoculated with Septoria nodorum […] controlled in a greenhouse. 10 Days after the inoculation, the total diseased area of the first leaves in each pot was observed and evaluated on the basis of the standards shown in Table 21.

SMILES | Evaluation (Erysiphe graminis) | Evaluation (total diseased area of the first leaves) (Septoria nodorum)
COC(=O)NCc1cc(C(C)=NOCc2ccccc2Cl)ccc1Cl (single isomer, unassigned) [A-84] | A (No diseased area) | –
COC(=O)NCc1cccc(C(C)=NOCc2ccccc2Cl)c1 [A-338] | – | A (No diseased area)
COC(=O)NCc1cccc(C(C)=NOCc2cccc(Cl)c2)c1 [A-339] | – | A (No diseased area)
COC(=O)NCc1cccc(C(C)=NOCc2ccc(Cl)cc2)c1 [A-340] | – | B (Diseased area of less than 5%)
COC(=O)NCc1cc(C(=NOCc2ccccc2Cl)C2CC2)ccc1Cl [A-341] | – | A (No diseased area)
COC(=O)NCc1cc(C(C)=NOCc2ccccc2F)ccc1C [A-342] | – | A (No diseased area)
COC(=O)NCc1cccc(C(C)=NOCc2ccccc2C)c1 [A-343] | – | A (No diseased area)
COC(=O)NCc1cccc(C(C)=NOCc2cccc(C)c2)c1 [A-344] | – | A (No diseased area)
COC(=O)NCc1cccc(C(C)=NOCc2ccc(C)cc2)c1 [A-345] | – | B (Diseased area of less than 5%)
COC(=O)NCc1cccc(C(C)=NOCc2ccccc2C(F)(F)F)c1 [A-348] | – | B (Diseased area of less than 5%)
COC(=O)NCc1cccc(C(C)=NOCc2cccc(C(F)(F)F)c2)c1 [A-349] | – | A (No diseased area)
COC(=O)NCc1cc(C(C)=NOCc2ccccn2)cc(C)c1Cl [A-355] | – | B (Diseased area of less than 5%)
COC(=O)NCc1cc(C(C)=NOCc2ccccc2C#N)cc(C)c1Cl [A-356] | – | A (No diseased area)
COC(=O)NCc1cc(C(C)=NOCc2ccccc2Cl)cc(C)c1C [A-358] | – | A (No diseased area)
COC(=O)NCc1cc(C(=NOCc2ccccc2C)C2CC2)ccc1Cl [A-359] | – | B (Diseased area of less than 5%)
COC(=O)NCc1cc(C(C)=NOCc2ccccc2C#N)ccc1C [A-360] | – | A (No diseased area)
COC(=O)N(Cc1cc(C(C)=NOCc2ccccc2C#N)ccc1C)Cc1ccccc1C#N [A-361] | – | B (Diseased area of less than 5%)
COC(=O)NCc1cc(C(C)=NOCc2cccc(C)c2)ccc1C [A-362] | – | A (No diseased area)
COC(=O)NCc1cc(C(C)=NOCc2ccc(C)cc2)ccc1C [A-363] | – | A (No diseased area)
COC(=O)NCc1cc(C(C)=NOCc2cccc(Cl)c2)ccc1C [A-364] | – | A (No diseased area)
COC(=O)NCc1cc(C(C)=NOCc2ccc(Cl)cc2)ccc1C [A-365] | – | B (Diseased area of less than 5%)
CON=C(C)CON=C(C)c1ccc(C)c(CNC(=O)OC)c1 [A-368] | – | A (No diseased area)
COC(=O)NCc1cc(C(C)=NOCCc2ccccc2)ccc1C [A-369] | – | A (No diseased area)

SMILES | Evaluation (Erysiphe graminis) | Evaluation (total diseased area of the first leaves) (Septoria nodorum)
COC(=O)NCc1cc(C(C)=NOCc2cc(C)ccn2)ccc1Cl [A-370] | – | A (No diseased area)
COC(=O)NCc1cc(C(C)=NOCc2cccc(Cl)c2)ccc1F [A-371] | – | A (No diseased area)
COC(=O)NCc1cc(C(C)=NOCc2ccc(Cl)cc2)ccc1F [A-372] | – | A (No diseased area)
COC(=O)NCc1cc(C(C)=NOCc2cccc(C)c2)ccc1F [A-373] | – | A (No diseased area)
COC(=O)NCc1cc(C(C)=NOCc2ccc(C)cc2)ccc1F [A-374] | – | A (No diseased area)
COC(=O)NCc1cc(C(C)=NOCc2cccc(C(F)(F)F)c2)ccc1F [A-375] | – | B (Diseased area of less than 5%)
COC(=O)NCc1cc(C(C)=NOCc2ccc(C(F)(F)F)cc2)ccc1F [A-376] | – | B (Diseased area of less than 5%)
COC(=O)NCc1cc(C(C)=NOCc2ccccc2C#N)ccc1F [A-377] | – | A (No diseased area)
COC(=O)NCc1cc(C(C)=NOC(C)c2ccccc2Cl)ccc1F (centres unmarked) [A-378] | – | A (No diseased area)
COC(=O)NCc1cc(C(C)=NOC(C)c2cccc(Cl)c2)ccc1F (centres unmarked) [A-379] | – | A (No diseased area)
COC(=O)NCc1cc(C(C)=NOC(C)c2ccc(Cl)cc2)ccc1F (centres unmarked) [A-380] | – | A (No diseased area)
COC(=O)NCc1c(C)c(C)c(C)c(C(C)=NOCc2ccccc2)c1C [A-381] | – | A (No diseased area)
COC(=O)NCc1c(Cl)c(Cl)c(Cl)c(C(C)=NOCc2ccccc2)c1Cl [A-382] | – | B (Diseased area of less than 5%)
COC(=O)NCc1cccc(C(C)=NOc2cccc(Cl)c2C#N)c1 [A-385] | – | B (Diseased area of less than 5%)
COC(=O)NCc1cccc(C(C)=NOCc2cccc(Cl)c2Cl)c1 [A-386] | – | B (Diseased area of less than 5%)
COC(=O)NCc1cccc(C(C)=NOCc2ccc(Cl)cc2Cl)c1 [A-387] | – | B (Diseased area of less than 5%)
COC(=O)NCc1cccc(C(C)=NOCc2cc(Cl)ccc2Cl)c1 [A-388] | – | A (No diseased area)
COC(=O)NCc1cccc(C(C)=NOCc2c(Cl)cccc2Cl)c1 [A-389] | – | A (No diseased area)
COC(=O)NCc1cc(C(C)=NOCc2cccc(C#N)n2)ccc1Cl [A-396] | – | A (No diseased area)
COC(=O)NCc1cc(C(C)=NOCc2cccnc2C#N)ccc1Cl [A-397] | – | A (No diseased area)
COC(=O)NCc1cccc(C(C)=NOCc2ccccc2F)c1 [A-398] | – | A (No diseased area)
COC(=O)NCc1cccc(C(C)=NOCc2ccc(F)cc2)c1 [A-400] | – | B (Diseased area of less than 5%)
COC(=O)NCc1cc(C(C)=NOCC(=O)c2ccc(Cl)cc2)ccc1Cl [A-403] | – | A (No diseased area)

SMILES | Evaluation (Erysiphe graminis) | Evaluation (total diseased area of the first leaves) (Septoria nodorum)
COC(=O)NCc1cc(C(C)=NOCC(=O)c2ccc(OC)cc2)ccc1Cl [A-404] | – | A (No diseased area)
COC(=O)NCc1cc(C(=NOCc2ccccn2)C2CC2)ccc1Cl [A-405] | – | A (No diseased area)
COC(=O)NCc1cc(C(C)=NOC(C)c2ccccc2C)ccc1Cl (centres unmarked) [A-406] | – | A (No diseased area)
COC(=O)NCc1cc(C(C)=NOC(C)c2cccc(C)c2)ccc1Cl (centres unmarked) [A-407] | – | A (No diseased area)
COC(=O)NCc1cc(C(C)=NOCc2ccc(C(C)=O)o2)ccc1Cl [A-410] | – | A (No diseased area)
COC(=O)NCc1cc(C(C)=NOC2C=CCC2OC)ccc1Cl (centres unmarked) [A-411] | – | A (No diseased area)
CON=C(C)C(ON=C(C)c1ccc(Cl)c(CNC(=O)OC)c1)C(C)=NOC (centres unmarked) [A-412] | – | A (No diseased area)
COC(=O)NCc1cc(C(C)=NOCc2nc(C)cc(C)n2)ccc1Cl [A-413] | – | A (No diseased area)
COC(=O)NCc1cc(C(C)=NOCc2ccccc2[N+](=O)[O-])ccc1Cl [A-414] | – | A (No diseased area)
COC(=O)NCc1cc(C(C)=NOCc2cccs2)ccc1Cl [A-415] | – | A (No diseased area)
COC(=O)NCc1cc(C(C)=NOCc2cscn2)ccc1Cl [A-416] | – | A (No diseased area)
COC(=O)NCc1cc(C(C)=NOCc2cccc(OC)n2)ccc1Cl [A-417] | – | A (No diseased area)
CCOc1cccc(CON=C(C)c2ccc(Cl)c(CNC(=O)OC)c2)n1 [A-418] | – | A (No diseased area)
COC(=O)NCc1cc(C(C)=NOCc2cccc(C#N)c2)ccc1F [A-428] | – | A (No diseased area)
COC(=O)NCc1cc(C(C)=NOCc2cccc(C)n2)ccc1F [A-430] | – | A (No diseased area)
COC(=O)NCc1cc(C(C)=NOCc2ccc3ccccc3n2)ccc1Cl [A-431] | – | A (No diseased area)
COC(=O)NCc1cc(C(C)=NOCc2nc(C(F)(F)F)cs2)ccc1Cl [A-432] | – | A (No diseased area)
COC(=O)NCc1cc(C(C)=NOCc2cccc(C)[n+]2[O-])ccc1Cl [A-433] | – | B (Diseased area of less than 5%)
COC(=O)NCc1cc(C=NOCc2ccc(Cl)cc2)ccc1Cl [A-438] | – | B (Diseased area of less than 5%)
COC(=O)NCc1cc(C(C)=NOCc2ccc3ccccc3n2)ccc1F [A-440] | – | B (Diseased area of less than 5%)
COC(=O)NCc1cc(C(C)=NOCC2CCCO2)ccc1Cl (centres unmarked) [A-443] | – | B (Diseased area of less than 5%)
COC(=O)NCc1cc(C(C)=NOC2C=CC(C(Cl)(Cl)Cl)C2)ccc1Cl (centres unmarked) [A-444] | – | B (Diseased area of less than 5%)
